In ChEMBL document CHEMBL1201862, “PubChem BioAssay data set” (2004):
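Test compounds were applied to cells in 96-well plates for 48 hours at 5 doses. GI50 is the concentration that inhibits growth by half.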 Active and inactive are the calls of the source. Cut-off read from the data, not from the text of the source: active = GI50 up to about 1.1 µM and inactive = higher.

What was measured:
Assay in all cases: DTP human tumour cell line panel, 48 h
[1] = system: 786-0
[2] = system: A549
[3] = system: BT-549
[4] = system: COLO 205
[5] = system: DU-145
[6] = system: EKVX
[7] = system: HCC 2998
[8] = system: HCT-116
[9] = system: HCT-15
[10] = system: HL-60
[11] = system: HOP-62
[12] = system: HT-29
[13] = system: Hs-578T
[14] = system: MDA-MB-231
[15] = system: MDA-MB-435
[16] = system: NCI-H522
[17] = system: OVCAR-4
[18] = system: RPMI-8226
[19] = system: SK-MEL-28
[20] = system: UACC-257

SMILES	GI50 [1]	GI50 [2]	GI50 [3]	GI50 [4]	GI50 [5]	GI50 [6]	GI50 [7]	GI50 [8]	GI50 [9] [µM]	GI50 [10]	GI50 [11]	GI50 [12]	GI50 [13]	GI50 [14]	GI50 [15]	GI50 [16]	GI50 [17]	GI50 [18]	GI50 [19]	GI50 [20]
CN(C)Cc1cc(Cl)c(O)c(CN(C)C)c1	> 100 µM (inactive)	> 100 µM (inactive)	> 100 µM (inactive)	> 100 µM (inactive)	> 100 µM (inactive)	> 100 µM (inactive)	> 100 µM (inactive)	> 100 µM (inactive)	> 100	> 100 µM (inactive)	> 100 µM (inactive)	> 100 µM (inactive)	> 100 µM (inactive)	> 100 µM (inactive)	> 100 µM (inactive)	> 100 µM (inactive)	> 100 µM (inactive)	> 100 µM (inactive)	> 100 µM (inactive)	> 100 µM (inactive)
CC(C)=CCC[C@@H](C)C1=C(Nc2ccccc2F)C(=O)C(C)=C(O)C1=O	5.65 µM (inactive)	4.09 µM (inactive)	8.09 µM (inactive)	2.9 µM (inactive)	9.35 µM (inactive)	5.12 µM (inactive)	7.59 µM (inactive)	4.58 µM (inactive)	3.77	1 µM (active)	9.98 µM (inactive)	4.74 µM (inactive)	5.31 µM (inactive)	4.53 µM (inactive)	6.22 µM (inactive)	4.18 µM (inactive)	9.98 µM (inactive)	17.4 µM (inactive)	17.6 µM (inactive)	10.1 µM (inactive)
NC(=O)CN1CCN(c2nc(N3CCCC3)c3nc(Cl)c(NCc4ccccc4)nc3n2)CC1	8.89 µM (inactive)	12.9 µM (inactive)	10 µM (inactive)	8.75 µM (inactive)	11.5 µM (inactive)	11.8 µM (inactive)	8.38 µM (inactive)	8 µM (inactive)	8.67	8.77 µM (inactive)	0.525 µM (active)	9.48 µM (inactive)	9.66 µM (inactive)	10.8 µM (inactive)	10 µM (inactive)	10.4 µM (inactive)	16 µM (inactive)	9.89 µM (inactive)	9.46 µM (inactive)	9.98 µM (inactive)
Oc1cc2c3c(c1)CCCN3CCC2	> 10 µM (inactive)	> 10 µM (inactive)	> 10 µM (inactive)	> 10 µM (inactive)	> 10 µM (inactive)	> 10 µM (inactive)	> 10 µM (inactive)	> 10 µM (inactive)	> 10	> 10 µM (inactive)	> 10 µM (inactive)	> 10 µM (inactive)	> 10 µM (inactive)	> 10 µM (inactive)	> 10 µM (inactive)	> 10 µM (inactive)	> 10 µM (inactive)	> 10 µM (inactive)	> 10 µM (inactive)	> 10 µM (inactive)
COc1ccc(C(OCC2OC(n3cc(C)c(=O)[nH]c3=O)CC2n2cc(Cn3cc(F)c(=O)[nH]c3=O)nn2)(c2ccccc2)c2ccccc2)cc1 (stereo not given)	3.67 µM (inactive)	4.1 µM (inactive)	11.1 µM (inactive)	4.97 µM (inactive)	6.44 µM (inactive)	5.65 µM (inactive)	3.31 µM (inactive)	3.38 µM (inactive)	4.5	2.63 µM (inactive)	4.1 µM (inactive)	6.28 µM (inactive)	6.97 µM (inactive)	2.69 µM (inactive)	1.75 µM (inactive)	3.77 µM (inactive)	16.4 µM (inactive)	3.04 µM (inactive)	11.3 µM (inactive)	11.5 µM (inactive)
C/C(CC/C(C)=N/O)=N\O	> 100 µM (inactive)	> 100 µM (inactive)	> 100 µM (inactive)	> 100 µM (inactive)	> 100 µM (inactive)	> 100 µM (inactive)	> 100 µM (inactive)	> 100 µM (inactive)	> 100	> 100 µM (inactive)	> 100 µM (inactive)	> 100 µM (inactive)	> 100 µM (inactive)	> 100 µM (inactive)	> 100 µM (inactive)	> 100 µM (inactive)	> 100 µM (inactive)	> 100 µM (inactive)	> 100 µM (inactive)	> 100 µM (inactive)
CCN1CCC(O)(/C=C/c2ccc(C)cc2C)C(C(=O)/C=C/c2ccc(C)cc2C)C1 (stereo not given)	1.71 µM (inactive)	4 µM (inactive)	2.79 µM (inactive)	1.98 µM (inactive)	4.59 µM (inactive)	2.74 µM (inactive)	1.69 µM (inactive)	2.22 µM (inactive)	1.93	3.35 µM (inactive)	2.89 µM (inactive)	2.16 µM (inactive)	2.09 µM (inactive)	2.23 µM (inactive)	2.51 µM (inactive)	1.84 µM (inactive)	2.99 µM (inactive)	4.76 µM (inactive)	4.7 µM (inactive)	4.99 µM (inactive)
O=c1[nH]nc(-c2ccc([N+](=O)[O-])cc2)n1/N=C/c1ccc([N+](=O)[O-])cc1	78.7 µM (inactive)	90.8 µM (inactive)	> 100 µM (inactive)	> 100 µM (inactive)	> 100 µM (inactive)	> 100 µM (inactive)	> 100 µM (inactive)	> 100 µM (inactive)	73.8	30.4 µM (inactive)	> 100 µM (inactive)	74 µM (inactive)	> 100 µM (inactive)	> 100 µM (inactive)	99.5 µM (inactive)	73.3 µM (inactive)	52.1 µM (inactive)	38.5 µM (inactive)	> 100 µM (inactive)	> 100 µM (inactive)
CC1CC(=O)Nc2cc(Cl)ccc2N1C(=O)C1CC1 (stereo not given)	> 100 µM (inactive)	> 100 µM (inactive)	> 100 µM (inactive)	> 100 µM (inactive)	> 100 µM (inactive)	> 100 µM (inactive)	> 100 µM (inactive)	> 100 µM (inactive)	> 100	> 100 µM (inactive)	> 100 µM (inactive)	> 100 µM (inactive)	> 100 µM (inactive)	> 100 µM (inactive)	> 100 µM (inactive)	> 100 µM (inactive)	> 100 µM (inactive)	> 100 µM (inactive)	> 100 µM (inactive)	> 100 µM (inactive)
CCN(CC)c1ccc(/C=C2/C[N+](C)(C)C/C(=C/c3ccc(N(CC)CC)cc3)C2=O)cc1	3.12 µM (inactive)	4.92 µM (inactive)	1.61 µM (inactive)	1.29 µM (inactive)	6.05 µM (inactive)	5.96 µM (inactive)	2.42 µM (inactive)	2.3 µM (inactive)	> 100	0.365 µM (active)	5.55 µM (inactive)	1.58 µM (inactive)	2.47 µM (inactive)	2.58 µM (inactive)	1.67 µM (inactive)	2.06 µM (inactive)	3.01 µM (inactive)	0.653 µM (active)	1.82 µM (inactive)	2.09 µM (inactive)
C/C=C(\C)C(=O)OC1C(C)=C2C(C1OC(=O)CCCC)C(C)(OC(C)=O)CC(OC(=O)CCCC)C1(O)C2OC(=O)C1(C)O (stereo not given)	0.982 µM (active)	1.03 µM (active)	8.71 µM (inactive)	0.891 µM (active)	3.71 µM (inactive)	8.22 µM (inactive)	3.24 µM (inactive)	0.525 µM (active)	21	0.0324 µM (active)	0.431 µM (active)	0.736 µM (active)	0.625 µM (active)	0.625 µM (active)	0.501 µM (active)	0.362 µM (active)	1.86 µM (inactive)	0.267 µM (active)	0.893 µM (active)	9.46 µM (inactive)
CC(C)(O)C1CC[C@]2(C)CC[C@]3(C)[C@H](CC[C@@H]4[C@@]5(C)CC[C@H](O)C(C)(C)[C@@H]5CC[C@]43C)[C@@H]12 (stereo not given in full)	25.2 µM (inactive)	30.1 µM (inactive)	29.2 µM (inactive)	29.7 µM (inactive)	23.2 µM (inactive)	23.2 µM (inactive)	26.8 µM (inactive)	21 µM (inactive)	35	> 100 µM (inactive)	25.8 µM (inactive)	35.8 µM (inactive)	22.7 µM (inactive)	> 100 µM (inactive)	34.1 µM (inactive)	29.1 µM (inactive)	27.2 µM (inactive)	34.3 µM (inactive)	29.2 µM (inactive)	15.4 µM (inactive)
CN(C)CCNc1ccc2nnn3c4ccccc4c(=O)c1c23	3.27 µM (inactive)	2.26 µM (inactive)	13.2 µM (inactive)	1.34 µM (inactive)	3.91 µM (inactive)	3.78 µM (inactive)	7.13 µM (inactive)	1.56 µM (inactive)	3.25	3.44 µM (inactive)	3.72 µM (inactive)	2.01 µM (inactive)	3.3 µM (inactive)	3.69 µM (inactive)	3.44 µM (inactive)	2.64 µM (inactive)	3.08 µM (inactive)	2.92 µM (inactive)	4.99 µM (inactive)	3.46 µM (inactive)
O=C(NC1=C(Cl)C(=O)c2ccccc2C1=O)c1ccccc1	45.4 µM (inactive)	52.5 µM (inactive)	19.9 µM (inactive)	15.5 µM (inactive)	55.1 µM (inactive)	> 100 µM (inactive)	46.5 µM (inactive)	17.3 µM (inactive)	25.2	34.8 µM (inactive)	85.3 µM (inactive)	29.3 µM (inactive)	69 µM (inactive)	32.9 µM (inactive)	18.9 µM (inactive)	23.9 µM (inactive)	45.1 µM (inactive)	44.4 µM (inactive)	44.8 µM (inactive)	> 10 µM (inactive)
